Series [1] has as its system KKA^y mice. The series is described as follows: Hypoglycemic and hypolipidemic actions in mice. The note with it: Mus musculus, po, 96 h, four days; for inhibition in vivo at 0.001 %: 0.001% in powdery diet; for inhibition in vivo at 0.005 %: 0.005% in powdery diet; for inhibition in vivo at 0.01 %: 0.01% in powdery diet. It counts as in vivo. The text has this: Hypoglycemic and Hypolipidemic Actions in Mice
Test compounds were mixed in a powdery diet (CE-2, Japan Clea) at the concentration of 0.01% (compounds of Examples 12, 30, 89, 186), 0.005% (compounds of Examples 7, 80, 82, 181, 182, 184, 256, 262, 283), 0.001% (compounds of Examples 9, 104, 110, 155, 156, 160, 167, 169, 172, 174, 176, 189), or 0.0003% (compounds of Examples 38, 40, 44), and freely given to KKA^y mice (9 to 12 weeks old, 5 mice in a group), a model of obese and type 2 diabetes mellitus, for four days. During this period, water was given freely. Blood was sampled from orbital venous plexus, and glucose and triglyceride levels in plasma separated from blood were determined enzymatically using L type Wako Glu2 (Wako Pure Chemical Industries, Ltd.) or L type Wako TG•H (Wako Pure Chemical Industries, Ltd.), respectively.
In the Table, the value of each treatment group is represented as percent reduction compared with the non-treatment group.

Series [2] deals with KKA^y mice. Put plainly: Total cholesterol lowering action and plasma anti-arteriosclerosis index-enhancing action in mice. The series is classed as in vivo. The note with it: Mus musculus, po, 96 h, 0.001% in powdery diet, four days, non-treatment group taken as 100%; for change in vivo at 0.001 %: percent increase of [(HDL cholesterol/total cholesterol)×100], read-out: Plasma anti-arteriosclerosis index-enchancing action (%); for inhibition in vivo at 0.001 %: percent reduction of plasma total cholesterol. From the text:
Total Cholesterol Lowering Action and Plasma Anti-Arteriosclerosis Index-Enhancing Action in Mice
Test compounds were mixed in a powdery diet (CE-2, Japan Clea) at the concentration of 0.01% (compounds of Examples 12, 30, 89), 0.005% (compounds of Examples 38, 40, 44, 181, 184, 262, 283), or 0.001% (compounds of Examples 9, 156, 167, 172, 174, 176, 189), and freely given to KKA^y mice (9 to 12 weeks old, 5 mice per group), a model of obese and type 2 diabetes mellitus, for four days. During this period, water was given freely. Blood was sampled from orbital venous plexus and plasma was separated. Total cholesterol levels were determined by using L type Wako Cholesterol (Wako Pure Chemical Industries, Ltd.). Precipitation reagent for apoB containing lipoprotein was added to a part of the plasma to precipitate non-HDL lipoprotein, and cholesterol (HDL cholesterol) in the resulting supernatant was determined. The plasma anti-arteriosclerosis index [(HDL cholesterol/total cholesterol)×100] was calculated by using these cholesterol levels.
In the Table, “Total cholesterol lowering action (%)” represents the percent reduction (%) of total cholesterol level in the treatment group, when the total cholesterol level in the non-treatment group is taken as 100%. “Plasma anti-arteriosclerosis index-enhancing action (%)” represents the percent increase (%) of plasma anti-arteriosclerosis index in the treatment group, when the plasma anti-arteriosclerosis index in the non-treatment group is taken as 100%.

The mark [3] stands for this setting: percent reduction of plasma glucose compared with the non-treatment group, read-out: Hypoglycemic action (%).
[4] abbreviates: percent reduction of plasma triglyceride compared with the non-treatment group, read-out: Hypolipidemic action (%).

SMILES strings stand for the structures. Where two headings read alike, the source gives them in different places.

Experimental findings from patent US7179823B1, “5-membered n-heterocyclic compounds with hypoglycemic and hypolipidemic activity” (Takeda Pharmaceutical Company Limited, priority 1999, dated 2007) are described below.

Regarding `CCOc1nn(Cc2ccc(OCc3nc(-c4ccccc4)oc3C)cc2)cc1CCC(=O)O` [Example 155, 3-[3-ethoxy-1-[4-(5-methyl-2-phenyl-4-oxazolylmethoxy)benzyl]-1H-pyrazol-4-yl]propionic acid], the inhibition in vivo at 0.001 % in the series on KKA^y mice [1] (setting [3]) worked out at 49%; with KKA^y mice [1] (setting [4]), 56%.

Regarding `CCCOc1nn(Cc2ccc(OCc3nc(-c4ccccc4)oc3C)cc2)cc1CCC(=O)O` [Example 156, 3-[1-[4-(5-methyl-2-phenyl-4-oxazolylmethoxy)benzyl]-3-propyloxy-1H-pyrazol-4-yl]propionic acid], the inhibition in vivo at 0.001 % was 45% in the series on KKA^y mice [1] (setting [3]), 80% in the series on KKA^y mice [1] (setting [4]) and 20% in the series with KKA^y mice [2]. In addition, in the series with KKA^y mice [2], the change in vivo at 0.001 % stood at 15%.

Take `Cc1oc(-c2ccccc2)nc1COc1ccc(Cn2cc(CCC(=O)O)c(OCc3ccccc3)n2)cc1` [Example 160, 3-[3-benzyloxy-1-[4-(5-methyl-2-phenyl-4-oxazolylmethoxy)benzyl]-1H-pyrazol-4-yl]propionic acid]: the melting point lay within 108 to 109 °C. Also, the inhibition in vivo at 0.001 % in the series on KKA^y mice [1] (setting [3]) was found to be 54%. For the same compound, the inhibition in vivo at 0.001 % in the series on KKA^y mice [1] (setting [4]) was 57%.

`CCOc1nn(Cc2ccc(OCc3nc(-c4ccco4)oc3C)cc2)cc1CCC(=O)O` [Example 167, 3-[3-ethoxy-1-[4-[2-(2-furyl)-5-methyl-4-oxazolylmethoxy]benzyl]-1H-pyrazol-4-yl]propionic acid]: the inhibition in vivo at 0.001 % in the series on KKA^y mice [1] (setting [3]) stood at 48%; in the series on KKA^y mice [1] (setting [4]), 60%; with KKA^y mice [2], 19%. The change in vivo at 0.001 % with KKA^y mice [2] came to 9%.

Take `Cc1oc(-c2ccco2)nc1COc1ccc(Cn2cc(CCC(=O)O)c(OCc3ccccc3)n2)cc1` [Example 169, 3-[3-benzyloxy-1-[4-[2-(2-furyl)-5-methyl-4-oxazolylmethoxy]benzyl]-1H-pyrazol-4-yl]propionic acid]: the inhibition in vivo at 0.001 % in the series with KKA^y mice [1] (setting [3]) is 48%; in the series on KKA^y mice [1] (setting [4]) it was 39%.

Turning to `CCOc1nn(Cc2ccc(OCc3nc(-c4ccccc4)oc3C)c(OC)c2)cc1CCC(=O)O` [Example 172, 3-[3-ethoxy-1-[3-methoxy-4-(5-methyl-2-phenyl-4-oxazolylmethoxy)benzyl]-1H-pyrazol-4-yl]propionic acid], the figures for the inhibition in vivo at 0.001 % in the series with KKA^y mice [1] (setting [3]), in the series on KKA^y mice [1] (setting [4]) and with KKA^y mice [2] were 42%, 62% and 20%, respectively. In addition, the change in vivo at 0.001 % with KKA^y mice [2] was determined as 11%.

As for `CCOc1nn(Cc2ccc(OCc3nc(-c4ccco4)oc3C)c(OC)c2)cc1CCC(=O)O` [Example 174, 3-[3-ethoxy-1-[4-[2-(2-furyl)-5-methyl-4-oxazolylmethoxy]-3-methoxybenzyl]-1H-pyrazol-4-yl]propionic acid], the inhibition in vivo at 0.001 % with KKA^y mice [1] (setting [3]) amounted to 40%; in the series on KKA^y mice [1] (setting [4]), 52%; in the series on KKA^y mice [2] it was 19%. Also, the change in vivo at 0.001 % in the series on KKA^y mice [2] was 10%.

For `CCOc1nn(Cc2ccc(OCc3nc(-c4ccccc4)sc3C)cc2)cc1CCC(=O)O` [Example 182, 3-[3-ethoxy-1-[4-(5-methyl-2-phenyl-4-thiazolylmethoxy)benzyl]-1H-pyrazol-4-yl]propionic acid], the figures for the inhibition in vivo at 0.005 % in the series with KKA^y mice [1] (setting [3]) and with KKA^y mice [1] (setting [4]) were 34% and 12%, respectively.

With `CCOc1nn(Cc2ccc(OCc3coc(-c4ccccc4)n3)cc2)cc1CCC(=O)O` [Example 186, 3-[3-ethoxy-1-[4-(2-phenyl-4-oxazolylmethoxy)benzyl]-1H-pyrazol-4-yl]propionic acid], the inhibition in vivo at 0.01 % worked out at 57% in the series with KKA^y mice [1] (setting [3]) and 78% in the series with KKA^y mice [1] (setting [4]).

The compound `O=C(O)c1cn(Cc2ccc(Oc3ccccc3)cc2)nc1OCc1ccc(Oc2ccccc2)cc1` [Example 320, 1-(4-phenoxybenzyl)-3-(4-phenoxybenzyloxy)-1H-pyrazole-4-carboxylic acid] gave a melting point of 141 to 142 °C.

In turn, `CCOC(=O)c1cn(Cc2ccc(Oc3ccccc3)cc2)nc1OCc1ccc(OCc2nc(-c3ccco3)oc2C)c(OC)c1` [Example 321, ethyl 3-[4-[2-(2-furyl)-5-methyl-4-oxazolylmethoxy]-3-methoxybenzyloxy]-1-(4-phenoxybenzyl)-1H-pyrazole-4-carboxylate] yielded a melting point of 98 to 99 °C.

`COc1cc(COc2nn(Cc3ccc(Oc4ccccc4)cc3)cc2C(=O)O)ccc1OCc1nc(-c2ccco2)oc1C` [Example 322, 3-[4-[2-(2-furyl)-5-methyl-4-oxazolylmethoxy]-3-methoxybenzyloxy]-1-(4-phenoxybenzyl)-1H-pyrazole-4-carboxylic acid] yielded a melting point of 153 to 154 °C.

`COc1cc(COc2nn(Cc3ccc(Oc4ccccc4)cc3)cc2C(N)=O)ccc1OCc1nc(-c2ccco2)oc1C` [Example 323, 3-[4-[2-(2-furyl)-5-methyl-4-oxazolylmethoxy]-3-methoxybenzyloxy]-1-(4-phenoxybenzyl)-1H-pyrazole-4-carbamide] came in with a melting point of 105 to 106 °C.

The compound `CCOC(=O)c1cn(Cc2ccc(Oc3ccccc3)cc2)nc1OCc1ccc(OCc2nc(-c3ccccc3)oc2C)c(OC)c1` [Example 324, ethyl 3-[3-methoxy-4-(5-methyl-2-phenyl-4-oxazolylmethoxy)benzyloxy]-1-(4-phenoxybenzyl)-1H-pyrazole-4-carboxylate] gave a melting point of 127 to 128 °C.

`Cc1oc(-c2ccco2)nc1COc1ccc(COc2nn(Cc3ccc(OCc4nc(-c5ccco5)oc4C)cc3)cc2C(=O)O)cc1` [Example 326, 1-[4-[2-(2-furyl)-5-methyl-4-oxazolylmethoxy]benzyl]-3-[4-[2-(2-furyl)-5-methyl-4-oxazolylmethoxy]benzyloxy]-1H-pyrazole-4-carboxylic acid]: the melting point was in the range of 144 to 145 °C.

As for `CCOC(=O)c1cn(Cc2ccc(Oc3ccccc3)cc2)nc1OCc1nc(-c2ccccc2)oc1C` [Example 329, ethyl 3-(5-methyl-2-phenyl-4-oxazolylmethoxy)-1-(4-phenoxybenzyl)-1H-pyrazole-4-carboxylate], the melting point was 96 to 97 °C.

As for `Cc1oc(-c2ccccc2)nc1COc1nn(Cc2ccc(Oc3ccccc3)cc2)cc1C(=O)O` [Example 330, 3-(5-methyl-2-phenyl-4-oxazolylmethoxy)-1-(4-phenoxybenzyl)-1H-pyrazole-4-carboxylic acid], the melting point was 222 to 223 °C.

As for `Cc1oc(-c2ccccc2)nc1COc1nn(Cc2ccc(Oc3ccccc3)cc2)cc1C(N)=O` [Example 331, 3-(5-methyl-2-phenyl-4-oxazolylmethoxy)-1-(4-phenoxybenzyl)-1H-pyrazole-4-carbamide], the melting point was 158 to 159 °C.

`CCOC(=O)/C=C/c1cn(Cc2ccc(Oc3ccccc3)cc2)nc1OCc1nc(-c2ccccc2)oc1C` [Example 332, ethyl(E)-3-[3-(5-methyl-2-phenyl-4-oxazolylmethoxy)-1-(4-phenoxybenzyl)-1H-pyrazol-4-yl]propenoate] came in with a melting point of 93 to 94 °C.

`Cc1oc(-c2ccccc2)nc1COc1nn(Cc2ccc(Oc3ccccc3)cc2)cc1/C=C/C(=O)O` [Example 333, (E)-3-[3-(5-methyl-2-phenyl-4-oxazolylmethoxy)-1-(4-phenoxybenzyl)-1H-pyrazol-4-yl]propenoic acid] registered a melting point of 210 to 211 °C.

For `Cc1oc(-c2ccccc2)nc1COc1nn(Cc2ccc(Oc3ccccc3)cc2)cc1CCC(=O)O` [Example 335, 3-[3-(5-methyl-2-phenyl-4-oxazolylmethoxy)-1-(4-phenoxybenzyl)-1H-pyrazol-4-yl]propionic acid], the melting point lay within 120 to 121 °C.
